Results: ChEMBL document CHEMBL1127068, “Selective inhibition of mammalian lanosterol 14 alpha-demethylase: a possible strategy for cholesterol lowering” (J Med Chem, 1993)
Several values for one entry are separate records, joined by “and”; a condition that tells them apart may be missing. Identical values can stand only once.

Key:
[1] = molecular target: T1, Aromatase (Homo sapiens, UniProt P11511); test: Binding affinity for Cytochrome P450 19A1
T1 sequence (P11511 whole entry): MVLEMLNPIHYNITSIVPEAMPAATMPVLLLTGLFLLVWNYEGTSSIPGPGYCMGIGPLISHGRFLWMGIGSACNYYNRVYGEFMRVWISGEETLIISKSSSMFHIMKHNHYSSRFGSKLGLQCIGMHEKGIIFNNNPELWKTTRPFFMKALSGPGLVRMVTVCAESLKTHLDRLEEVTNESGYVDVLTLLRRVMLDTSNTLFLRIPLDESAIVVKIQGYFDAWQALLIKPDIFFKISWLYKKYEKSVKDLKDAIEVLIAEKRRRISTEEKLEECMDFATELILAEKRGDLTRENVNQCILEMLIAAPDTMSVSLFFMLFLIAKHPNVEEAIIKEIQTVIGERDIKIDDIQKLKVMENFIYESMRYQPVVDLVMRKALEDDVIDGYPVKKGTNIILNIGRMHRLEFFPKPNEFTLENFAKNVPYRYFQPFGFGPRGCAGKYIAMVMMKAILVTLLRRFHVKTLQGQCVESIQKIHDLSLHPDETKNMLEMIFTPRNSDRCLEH

[2] = tested on: Cricetinae gen. sp.; test: Percentage lowering of the total serum cholesterol in male hamsters at a dose of 100 […] orally administered for 3 days; type: functional, Cricetulus griseus
[3] = tested on: Cricetinae gen. sp.; test: Percentage lowering of the total serum cholesterol in male hamsters at a dose of 30 mg/dL orally administered for 3 days; type: functional, Cricetulus griseus
[4] = tested on: Cricetinae gen. sp.; test: Effect on total serum cholesterol in male hamsters at a dose of 10 mg/kg orally administered for 3 days; type: functional, Cricetulus griseus; conditions: route oral
[5] = tested on: Cricetinae gen. sp.; test: Effect on total serum cholesterol in male hamsters at a dose of 100 mg/kg orally administered for 3 days; type: functional, Cricetulus griseus; conditions: route oral
[6] = tested on: Cricetinae gen. sp.; test: Effect on total serum cholesterol in male hamsters at a dose of 30 mg/kg orally administered for 3 days; type: functional, Cricetulus griseus; conditions: route oral
[7] = tested on: Cricetinae gen. sp.; test: Percentage lowering of the total serum cholesterol in male hamsters at a dose of 10 […] orally administered for 3 days; type: functional, Cricetulus griseus
[8] = species: Homo sapiens; test: Inhibition of cellular cholesterol biosynthesis using human fibroblasts in tissue culture; type: functional, organism-based
[9] = molecular target: T2, Cytochrome P450 11B1, mitochondrial (Homo sapiens, UniProt P15538); test: Binding affinity for corticoid 11-beta-hydroxylase
T2 sequence (P15538 whole entry): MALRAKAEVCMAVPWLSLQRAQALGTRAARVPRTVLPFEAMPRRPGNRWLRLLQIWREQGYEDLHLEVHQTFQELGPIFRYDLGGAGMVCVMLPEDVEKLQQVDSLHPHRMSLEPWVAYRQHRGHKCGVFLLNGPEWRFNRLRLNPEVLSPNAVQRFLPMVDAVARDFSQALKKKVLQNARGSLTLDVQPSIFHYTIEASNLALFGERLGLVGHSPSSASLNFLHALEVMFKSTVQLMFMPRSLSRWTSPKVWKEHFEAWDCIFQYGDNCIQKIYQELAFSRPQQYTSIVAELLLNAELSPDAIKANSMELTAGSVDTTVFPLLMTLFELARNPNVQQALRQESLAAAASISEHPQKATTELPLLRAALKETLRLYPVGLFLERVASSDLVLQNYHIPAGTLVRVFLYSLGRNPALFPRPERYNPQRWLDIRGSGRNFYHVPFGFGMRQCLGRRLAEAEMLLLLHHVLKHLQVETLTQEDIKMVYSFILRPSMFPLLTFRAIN

[10] = molecular target: T3, Steroid 17-alpha-hydroxylase/17,20 lyase (Homo sapiens, UniProt P05093); test: Binding affinity for progesterone 17-alpha,20-lyase
T3 sequence (P05093 whole entry): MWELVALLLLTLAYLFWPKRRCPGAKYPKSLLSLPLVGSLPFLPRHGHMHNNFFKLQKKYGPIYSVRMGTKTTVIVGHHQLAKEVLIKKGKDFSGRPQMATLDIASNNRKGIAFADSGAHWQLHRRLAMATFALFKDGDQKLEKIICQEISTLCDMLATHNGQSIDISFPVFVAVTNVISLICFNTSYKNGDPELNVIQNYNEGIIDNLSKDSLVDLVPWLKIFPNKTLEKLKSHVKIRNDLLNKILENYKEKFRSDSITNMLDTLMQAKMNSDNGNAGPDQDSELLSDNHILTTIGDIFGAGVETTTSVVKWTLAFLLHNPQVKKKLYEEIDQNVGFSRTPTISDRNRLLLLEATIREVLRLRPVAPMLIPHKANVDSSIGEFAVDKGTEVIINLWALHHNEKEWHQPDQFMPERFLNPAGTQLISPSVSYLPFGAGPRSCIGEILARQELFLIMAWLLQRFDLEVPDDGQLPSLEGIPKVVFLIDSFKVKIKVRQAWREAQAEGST

[11] = molecular target: Cytochrome P450 3A4 (Homo sapiens, UniProt P08684); test: Binding affinity for progesterone 6-beta-hydroxylase of hepatic microsomes; type: ADME
Sequence of Cytochrome P450 3A4 (P08684 whole entry): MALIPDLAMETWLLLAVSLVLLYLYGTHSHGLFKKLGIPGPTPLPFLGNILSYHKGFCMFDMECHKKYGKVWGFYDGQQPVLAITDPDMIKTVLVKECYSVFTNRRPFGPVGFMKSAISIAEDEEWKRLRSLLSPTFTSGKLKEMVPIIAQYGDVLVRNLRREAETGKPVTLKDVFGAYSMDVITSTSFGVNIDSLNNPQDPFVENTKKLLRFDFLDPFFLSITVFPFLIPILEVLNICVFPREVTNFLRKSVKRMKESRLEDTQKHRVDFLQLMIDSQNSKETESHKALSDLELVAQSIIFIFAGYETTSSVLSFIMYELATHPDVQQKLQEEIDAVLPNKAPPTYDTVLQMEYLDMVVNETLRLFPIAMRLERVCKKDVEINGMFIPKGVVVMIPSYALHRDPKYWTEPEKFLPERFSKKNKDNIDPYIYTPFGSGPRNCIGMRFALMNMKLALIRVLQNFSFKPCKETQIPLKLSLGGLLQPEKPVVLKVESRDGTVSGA

[12] = molecular target: T3, Steroid 17-alpha-hydroxylase/17,20 lyase; test: Binding affinity for […] 17-alpha-hydroxylase
[13] = tested on: Cricetinae gen. sp.; test: Effect on total serum cholesterol in male hamsters at a dose of 10 mg/kg orally administered for 14 days; type: functional, Cricetulus griseus; conditions: route oral
[14] = tested on: Cricetinae gen. sp.; test: Percentage lowering of the total serum cholesterol in male hamsters at a dose of 150 […] orally administered for 14 days; type: functional, Cricetulus griseus
[15] = tested on: Cricetinae gen. sp.; test: Percentage lowering of the total serum cholesterol in male hamsters at a dose of 25 mg/dL orally administered for 14 days; type: functional, Cricetulus griseus
[16] = tested on: Cricetinae gen. sp.; test: Percentage lowering of the total serum cholesterol in male hamsters at a dose of 5 mg/dL orally administered for 14 days; type: functional, Cricetulus griseus
[17] = tested on: Cricetinae gen. sp.; test: Effect on total serum cholesterol in male hamsters at a dose of 100 mg/kg orally administered for 14 days; type: functional, Cricetulus griseus; conditions: route oral
[18] = tested on: Cricetinae gen. sp.; test: Effect on total serum cholesterol in male hamsters at a dose of 150 mg/kg orally administered for 14 days; type: functional, Cricetulus griseus; conditions: route oral
[19] = tested on: Cricetinae gen. sp.; test: Effect on total serum cholesterol in male hamsters at a dose of 200 mg/kg orally administered for 14 days; type: functional, Cricetulus griseus; conditions: route oral
[20] = tested on: Cricetinae gen. sp.; test: Effect on total serum cholesterol in male hamsters at a dose of 25 mg/kg orally administered for 14 days; type: functional, Cricetulus griseus; conditions: route oral
[21] = tested on: Cricetinae gen. sp.; test: Effect on total serum cholesterol in male hamsters at a dose of 5 mg/kg orally administered for 14 days; type: functional, Cricetulus griseus; conditions: route oral
[22] = tested on: Cricetinae gen. sp.; test: Effect on total serum cholesterol in male hamsters at a dose of 50 mg/kg orally administered for 14 days; type: functional, Cricetulus griseus; conditions: route oral
[23] = tested on: Cricetinae gen. sp.; test: Percentage lowering of the total serum cholesterol in male hamsters at a dose of 100 […] orally administered for 14 days; type: functional, Cricetulus griseus
[24] = tested on: Cricetinae gen. sp.; test: Percentage lowering of the total serum cholesterol in male hamsters at a dose of 200 […] orally administered for 14 days; type: functional, Cricetulus griseus
[25] = tested on: Cricetinae gen. sp.; test: Percentage lowering of the total serum cholesterol in male hamsters at a dose of 50 mg/dL orally administered for 14 days; type: functional, Cricetulus griseus
[26] = tested on: Cricetinae gen. sp.; test: Percentage lowering of the total serum cholesterol in male hamsters at a dose of 10 […] orally administered for 14 days; type: functional, Cricetulus griseus
[27] = tested on: Cricetinae gen. sp.; test: Percentage lowering of the total serum cholesterol in male hamsters at a dose of 75 mg/dL orally administered for 14 days; type: functional, Cricetulus griseus
[28] = tested on: Cricetinae gen. sp.; test: Effect on total serum cholesterol in male hamsters at a dose of 75 mg/kg orally administered for 14 days; type: functional, Cricetulus griseus; conditions: route oral
[29] = tested on: Cricetinae gen. sp.; test: Effect on total serum cholesterol in male hamsters at a dose of 60 mg/kg orally administered for 3 days; type: functional, Cricetulus griseus; conditions: route oral
[30] = tested on: Cricetinae gen. sp.; test: Percentage lowering of the total serum cholesterol in male hamsters at a dose of 60 […] orally administered for 3 days; type: functional, Cricetulus griseus

## Nc1ccc(SC[C@H]2CO[C@@](CCc3ccc(Cl)cc3)(Cn3ccnc3)O2)cc1
[1]
  Ki: 13 nM
[2]
  Lowering: 22%
[3]
  Lowering: 13%
[4]
  TC: 105.7 mg/dL
[5]
  TC: 86 mg/dL
[6]
  TC: 96.4 mg/dL
[7]
  Lowering: 5%
[8]
  IC50: 8 nM
[9]
  Ki: 15 nM
[10]
  Ki: 54 nM
[11]
  Ki: 33 nM
[12]
  Ki: 109 nM

## CC[C@H](C)C(=O)O[C@H]1C[C@@H](C)C=C2C=C[C@H](C)[C@H](CC[C@@H]3C[C@@H](O)CC(=O)O3)[C@H]21 [LOVASTATIN]
[13]
  TC: 102.8 mg/dL
[14]
  Lowering: 37%
[15]
  Lowering: 6% and 10%
[16]
  Lowering: 5%
[17]
  TC: 94.9 mg/dL
[18]
  TC: 80.3 mg/dL
[19]
  TC: 79.5 mg/dL
[20]; 25 mg/kg
  TC: 111.2 mg/dL and 114 mg/dL
[21]
  TC: 112.2 mg/dL
[22]; 50 mg/kg
  TC: 99.4 mg/dL and 102 mg/dL
[23]
  Lowering: 26%
[24]
  Lowering: 38%
[25]
  Lowering: 16% and 19%
[26]
  Lowering: 13%

## Cl.Cl.Cl.Nc1ccc(SC[C@@H]2CO[C@](CCc3ccc(Cl)cc3)(Cn3ccnc3)O2)cc1
[15]
  Lowering: 8%
[27]
  Lowering: 40%
[17]
  TC: 65.6 mg/dL
[20]
  TC: 117.4 mg/dL
[22]
  TC: 88.9 mg/dL
[28]
  TC: 76 mg/dL
[23]
  Lowering: 49%
[25]
  Lowering: 30%

## Nc1ccc(SC[C@H]2CO[C@](CCc3ccc(Cl)cc3)(Cn3ccnc3)O2)cc1
[29]
  TC: 85.1 mg/dL
[30]
  Lowering: 40%
